What was measured:
[1] = tested on: antibodies against E. coli organisms; assay: Antibody response of the mouse to dead E. coli organisms (ELISA); assay type: in vivo, female NMRI mice; conditions: for Antibody response to dead E. coli organisms, IgM: 10-day value; for Antibody response to dead E. coli organisms, IgG: 20-day value
Experimental: Groups each containing 5 female NMRI mice with a body weight of 18 to 20 g were formed, and each of the animals received either intravenous administration of 10^8 heat-killed E coli bacteria or 300 Lf (limes of flocculation) of tetanus toxoid. Oral administration of the test substance in physiological saline (PBS) in doses of 5, 10, 20, 40 or 80 mg/kg, or of the pure vehicle (control groups), was carried out at the same time as administration of the antigen. After 10 and 20 days, blood was taken from the retroorbital venous plexus of the mice and, in the sera obtained therefrom, the IgG and IgM antibodies against E. coli organisms and tetanus toxoid were determined with the aid of the ELISA technique known to those skilled in the art, using homologous lipopolysaccharide from E. coli and tetanus toxoid, respectively, as antigen. The magnitude of the extinctions measured in the photometer is a measure of the amount of antibodies formed.

[2] = Acute toxicity; set-up: species or system mice; conditions: mouse, in vivo, iv, single dose, mortality within 7 days
Experimental: The LD50 values were determined by the standard method via the mortality occurring within 7 days in NMRI (Naval Medical Research Institute) mice (6 animals per dose) after a single intraperitoneal (i.p.) or intravenous (i.v.) dose.

[3] = tested on: Listeria monocytogenes; assay: DTH reaction in mice infected with Listeria monocytogenes; assay type: in vivo, female NMRI mice
Experimental: In this experiment, the specific, cell-mediated immunity against the bacterium Listeria monocytogenes was investigated by means of the DTH reaction Female NMRI mice were infected with 2×10^2 live bacteria and then divided into groups each containing 10 animals. The treatment of the animals by intraperitoneal administration of the product in doses of 0.1, 1 or 10 mg/kg was started the same day. This treatment was repeated after 2, 4 and 6 days. Infected animals in a fourth experimental group, which received merely the pure vehicle i.p. in place of the product, acted as positive control. On day 13 of the experiment the DTH reaction was induced by injection of a soluble antigen obtained from Listeria monocytogenes into the footpad. 10 uninfected animals in a 5th experimental group (negative control) were likewise treated with the antigen in order to rule out non-specific reactions to the antigen challenge 24 hours after the administration of antigen, the percentage increase in the paw volume was determined as a measure of the induced DTH reaction.
The same experimental system was also used to examine the effect of the test substance on i.p. administration of 10 mg/kg on the DTH reaction of female NMRI mice after infection with differing amounts of the bacterium Listeria monocytogenes. The animals received either 2×10^2 or 5×10^2 organisms. According to this, although the DTH reaction is increased by the test substance at both organism concentrations, this stimulation is distinctly more pronounced in the animal group infected with the lower number of organisms.

[4] = tested on: peritoneal macrophages; assay: Activation of peritoneal macrophages: chemiluminescence (oxidative metabolism); conditions: for Chemiluminescence: single dose
[5] = tested on: peritoneal macrophages; assay: Stimulation of the release of lysosomal enzymes from peritoneal macrophages (exocytosis); conditions: for Enzyme activity N-Ac-Glu / Enzyme activity β-Gal / Enzyme activity β-Glu: single dose
[6] = tested on: DTH reaction to sheep erythrocytes; assay: Delayed-type hypersensitivity (DTH) reaction to sheep erythrocytes; assay type: in vivo, female NMRI mice
Experimental: Groups each comprising 5 female NMRI mice with a body weight of 18 to 20 g were formed, and each animal was given 10^6 or 10^9 sheep red blood cells intravenously. Sheep erythrocytes are regarded in immunology as a standard antigen with which it is possible to check cellular and humoral immunoreactivity, especially the functioning of the T-cell-dependent component of the immune system, the so-called T-helper cells. The test substances were administered, in intraperitoneal doses of 5 to 100 mg/kg in physiological saline, at the same time as the antigen. After 5 days, each animal was given an injection of 2×10^8 sheep erythrocytes into the footpad. 24 hours later, the swelling of the foot was measured. The foot swelling is induced by a skin reaction of the delayed type (DTH reaction) and, as is known to those skilled in the art, is a measure of the cellular immune response (J. Immunol. 101 (1968), 830-845). The test results obtained with the product of Example 34, by way of example, are compiled in Table 7 and illustrate that the compounds of the formula I--administered prophylactically--are able to increase the cellular immune response after immunization with the antigen by stimulation of the T-cell system, with the stimulant action reaching its optimum in this experiment at a dose of 25 mg/kg.

O=P(O)(O)C1CC(c2ccccc2)=NO1 (racemic) [Example 34, 3-Phenyl-2-isoxazolin-5-ylphosphonic acid]
Antibody response to dead E. coli organisms, IgM ([1]; 5 mg/kg 1 × p.o.): 1217 ± 264 mE492nm
Antibody response to dead E. coli organisms, IgG ([1]; 5 mg/kg 1 × p.o.): 1377 ± 324 mE492nm
Antibody response to dead E. coli organisms, IgM ([1]; 10 mg/kg 1 × p.o.): 1411 ± 179 mE492nm
Antibody response to dead E. coli organisms, IgG ([1]; 10 mg/kg 1 × p.o.): 1663 ± 191 mE492nm
Antibody response to dead E. coli organisms, IgM ([1]; 20 mg/kg 1 × p.o.): 1657 ± 231 mE492nm
Antibody response to dead E. coli organisms, IgG ([1]; 20 mg/kg 1 × p.o.): 1951 ± 468 mE492nm
Antibody response to dead E. coli organisms, IgM ([1]; 40 mg/kg 1 × p.o.): 1523 ± 288 mE492nm
Antibody response to dead E. coli organisms, IgG ([1]; 40 mg/kg 1 × p.o.): 2434 ± 312 mE492nm
Antibody response to dead E. coli organisms, IgM ([1]; 80 mg/kg 1 × p.o.): 1459 ± 208 mE492nm
Antibody response to dead E. coli organisms, IgG ([1]; 80 mg/kg 1 × p.o.): 2217 ± 273 mE492nm
LD50 at 168 h [2]: 200 to 300 mg/kg
DTH reaction % increase in the paw volume ([3]; 2×10^2 bacteria, 0.1 mg/kg 4 × i.p.): 13.3 ± 9.7%
DTH reaction % increase in the paw volume ([3]; 2×10^2 bacteria, 1.0 mg/kg 4 × i.p.): 15.0 ± 7.0%
DTH reaction % increase in the paw volume ([3]; 2×10^2 bacteria, 10.0 mg/kg 4 × i.p., p <0.05 (Student's t test)): 19.2 ± 9.4%
DTH reaction % increase in the paw volume ([3]; Table 13 experiment: 2 × 10^2 organisms, 4 × 10 mg/kg i.p.): 30.9 ± 15.3%
DTH reaction % increase in the paw volume ([3]; Table 13 experiment: 5 × 10^2 organisms, 4 × 10 mg/kg i.p.): 17.9 ± 12.1%
Chemiluminescence ([4]; 5 mg/kg i.p.): 842 ± 42 RLU/15 min × 10^3
Chemiluminescence ([4]; 5 mg/kg p.o.): 728 ± 101 RLU/15 min × 10^3
Chemiluminescence ([4]; 10 mg/kg i.p.): 2842 ± 223 RLU/15 min × 10^3
Chemiluminescence ([4]; 10 mg/kg p.o.): 2140 ± 156 RLU/15 min × 10^3
Chemiluminescence ([4]; 20 mg/kg i.p.): 4935 ± 516 RLU/15 min × 10^3
Chemiluminescence ([4]; 20 mg/kg p.o.): 3286 ± 283 RLU/15 min × 10^3
Chemiluminescence ([4]; 40 mg/kg i.p.): 6990 ± 290 RLU/15 min × 10^3
Chemiluminescence ([4]; 40 mg/kg p.o.): 4405 ± 197 RLU/15 min × 10^3
chemiluminescence, in words ([4]; i.p. and p.o.): pronounced dose-dependent increase in chemiluminescence
Enzyme activity N-Ac-Glu ([5]; 5 mg/kg i.p.): 2607 mU/ml
Enzyme activity β-Gal ([5]; 5 mg/kg i.p.): 2357 mU/ml
Enzyme activity β-Glu ([5]; 5 mg/kg i.p.): 1197 mU/ml
Enzyme activity N-Ac-Glu ([5]; 5 mg/kg p.o.): 2071 mU/ml
Enzyme activity β-Gal ([5]; 5 mg/kg p.o.): 2216 mU/ml
Enzyme activity β-Glu ([5]; 5 mg/kg p.o.): 973 mU/ml
Enzyme activity N-Ac-Glu ([5]; 10 mg/kg i.p.): 4822 mU/ml
Enzyme activity β-Gal ([5]; 10 mg/kg i.p.): 3956 mU/ml
Enzyme activity β-Glu ([5]; 10 mg/kg i.p.): 1542 mU/ml
Enzyme activity N-Ac-Glu ([5]; 10 mg/kg p.o.): 4283 mU/ml
Enzyme activity β-Gal ([5]; 10 mg/kg p.o.): 3513 mU/ml
Enzyme activity β-Glu ([5]; 10 mg/kg p.o.): 1393 mU/ml
Enzyme activity N-Ac-Glu ([5]; 20 mg/kg i.p.): 6812 mU/ml
Enzyme activity β-Gal ([5]; 20 mg/kg i.p.): 6918 mU/ml
Enzyme activity β-Glu ([5]; 20 mg/kg i.p.): 2067 mU/ml
Enzyme activity N-Ac-Glu ([5]; 20 mg/kg p.o.): 6128 mU/ml
Enzyme activity β-Gal ([5]; 20 mg/kg p.o.): 6011 mU/ml
Enzyme activity β-Glu ([5]; 20 mg/kg p.o.): 1979 mU/ml
Enzyme activity N-Ac-Glu ([5]; 40 mg/kg i.p.): 9281 mU/ml
Enzyme activity β-Gal ([5]; 40 mg/kg i.p.): 9318 mU/ml
Enzyme activity β-Glu ([5]; 40 mg/kg i.p.): 2547 mU/ml
Enzyme activity N-Ac-Glu ([5]; 40 mg/kg p.o.): 8432 mU/ml
Enzyme activity β-Gal ([5]; 40 mg/kg p.o.): 9262 mU/ml
Enzyme activity β-Glu ([5]; 40 mg/kg p.o.): 2286 mU/ml
release of acid hydrolases, in words ([5]; i.p. or oral): increased as a function of the dose
% Foot swelling after immunization ([6]; 10^6 erythrocytes, 5.0 mg/kg 1x i.p.): 25.3 ± 5.8%
% Foot swelling after immunization ([6]; 10^6 erythrocytes, 10.0 mg/kg 1x i.p.): 28.9 ± 7.7%
% Foot swelling after immunization ([6]; 10^6 erythrocytes, 12.5 mg/kg 1x i.p.): 29.9 ± 3.5%
% Foot swelling after immunization ([6]; 10^6 erythrocytes, 20.0 mg/kg 1x i.p.): 32.5 ± 3.0%
% Foot swelling after immunization ([6]; 10^6 erythrocytes, 25.0 mg/kg 1x i.p.): 33.7 ± 6.6%
% Foot swelling after immunization ([6]; 10^6 erythrocytes, 40.0 mg/kg 1x i.p.): 29.7 ± 4.7%
% Foot swelling after immunization ([6]; 10^6 erythrocytes, 50.0 mg/kg 1x i.p.): 29.2 ± 6.9%
% Foot swelling after immunization ([6]; 10^6 erythrocytes, 100.0 mg/kg 1x i.p.): 27.3 ± 4.6%
% Foot swelling after immunization ([6]; 10^9 erythrocytes, 5.0 mg/kg 1x i.p.): 22.8 ± 3.5%
% Foot swelling after immunization ([6]; 10^9 erythrocytes, 10.0 mg/kg 1x i.p.): 24.1 ± 5.7%
% Foot swelling after immunization ([6]; 10^9 erythrocytes, 12.5 mg/kg 1x i.p.): 26.1 ± 8.9%
% Foot swelling after immunization ([6]; 10^9 erythrocytes, 20.0 mg/kg 1x i.p.): 30.5 ± 6.5%
% Foot swelling after immunization ([6]; 10^9 erythrocytes, 25.0 mg/kg 1x i.p.): 34.1 ± 7.4%
% Foot swelling after immunization ([6]; 10^9 erythrocytes, 40.0 mg/kg 1x i.p.): 32.8 ± 5.6%
% Foot swelling after immunization ([6]; 10^9 erythrocytes, 50.0 mg/kg 1x i.p.): 28.1 ± 4.1%
% Foot swelling after immunization ([6]; 10^9 erythrocytes, 100.0 mg/kg 1x i.p.): 26.6 ± 5.0%
dose at which the stimulant action (DTH reaction) reaches its optimum ([6]; i.p.): 25 mg/kg
Relative stimulation of the DTH reaction ([6]; single i.p. dose of 40 mg/kg, maximal stimulation by Example 34 = 100%): 100%
